# Experimental data published in patent US9221783B2, “Phenylalkyl sulfamate compound and muscle relaxant composition comprising the same” (BIO-PHARM SOLUTIONS CO., LTD., priority 2012, dated 2015).
# What was measured:
# Format in all cases: in vivo
# [1] = test system: male mice (ICR); test: Muscle relaxation activity by residence time on a rotarod rotating at a fixed speed; conditions: intraperitoneal; for ED50: Mus musculus, ip, 15 rpm, max 10 min, ED50 vs vehicle only (100%), determined at 0.5 h (time of maximum effect)
# Method: (§1) For testing, male mice (ICR) were purchased from ORIENT BIO INC. (Korea), divided into several groups with 6 mice in each group, and were adapted for 4-5 days. The mice having the weight ranging from 19 g to 26 g were employed for the test. The pharmacological effect of the test compounds on muscle relaxation was evaluated by Rotarod test, grip strength test, and muscular force (wire hang) test. All mice were adapted to the test environment at one hour before starting the tests. The pharmacological effects of all the test compounds were evaluated by administration through peritoneal cavity of the mice (10 ul/g, bw).
# All the mice to be tested were preliminarily trained for 5 minutes on a rod rotating at the rate of 15 revolutions per a minute. The mice that could not remain on the rod without falling off therefrom for a minimum of 2 minutes were excluded from this testing. After the training, all the mice were allowed to rest for 45-60 minutes. Before the administration of the test compounds, the mice were subjected to a further training for one minute on the rod rotating under the same condition, where the mice falling off from the rod were excluded from this experimentation. […] In case a mouse stays on the rod until the test is finished, the time was recorded as 10 minutes. As test time for evaluation, a maximum of 10 minutes was applied. This experimentation was conducted according to the method described in the reference, ‘Yasuda et al. (2005) Antipyretic, analgesic and muscle relaxant activities of Pueraria isoflavonoids and their metabolites from Pueraria lobata Ohwi—a traditional Chinese drug. Biol. Pharm. Bull. 28: 1224-1228.
# (§2) The obtained results are shown as mean±sem. The difference between the groups was statistically analyzed by ANOVA, and then, further examined by Dunnett's test or Bonferroni test. If p is less than 0.05, it was determined that the difference between the groups had statistical significance.
# (§3) The results of muscle relaxation activity of the phenylalkyl sulfamate compounds measured in above Experimental Examples 1 to 43 are shown in following Table 2.
# [2] = test system: male mice (ICR); test: Muscle relaxation activity by wire hang (wire suspension) test; conditions: intraperitoneal; for ED50: Mus musculus, ip, ED50 vs vehicle only (100%); for Wire suspension, percentage compared to the vehicle only (100%): dose 100 (unit not given)
# Method: as §1
# This experimentation was conducted using a metal wire of 30 cm in length, which was suspended between two pillars at a height of about 40 cm from the bottom covered with a soft pad. […] Each mouse was made to grip the wire using two forelimbs, and the elapse time before the mouse fell off from the wire to the pad on the bottom was recorded in seconds. Each mouse was given 5 opportunities for this test at an interval of 2 minutes period. The highest 3 records among the test opportunities were selected and the mean value was used as the test result. This experimentation was conducted according to the method described in the reference, ‘Jacqueline N. Crawley (1999) Behavioral phenotyping of transgenic and knockout mice: experimental design and evaluation of general health, sensory functions, motor abilities, and specific behavioral tests. Brain Res. 835: 18-26’.
# as §2, §3
# [3] = test system: male mice (ICR); test: Muscle relaxation activity by grip strength test (forelimbs); conditions: intraperitoneal; for ED50: Mus musculus, ip; for Grip strength, percentage compared to the vehicle only (100%): dose 200 (unit not given)
# Method: as §1
# The test was conducted before and after administration of the compounds to evaluate the effects thereof. […] The mouse was made to grip the rod with its forelimbs, and its tail was pulled, where the force at which the mouse detached from the rod was recorded. The instrument indicated the force in grams. All of the mice were given 3 opportunities for test, and the 3 highest values among the test opportunities were selected and the mean value was used as the test result. […] Psychopharmacol. 110: 92-96’.
# as §2
# [4] = determined at 0.5 h (time of maximum effect)
# [5] = ED50 = 50% of muscle relaxation activity compared to vehicle only (100%), determined at 0.5 h (time of maximum effect)
Compound,ED50 [1] [mg/kg],"ED50 [3, 5] [mg/kg]","Grip strength, percentage compared to the vehicle only (100%) [3]",other results
"CC1(C)O[C@H](c2ccccc2Cl)[C@@H](COS(N)(=O)=O)O1 [Example 1, ((4R,5R)-5-(2-chlorophenyl)-2,2-dimethyl-1,3-dioxolan-4-yl)methyl sulfamate]",108,212,,"ED50 [2, 4]: 96.7 mg/kg"
"CC1(C)O[C@@H](COS(N)(=O)=O)[C@H](c2ccccc2Cl)O1 [Example 2, ((4S,5S)-5-(2-chlorophenyl)-2,2-dimethyl-1,3-dioxolan-4-yl)methyl sulfamate]",73.6,211,,"ED50 [2, 4]: 81.4 mg/kg"
"CC1(C)OC(COS(N)(=O)=O)C(c2ccccc2Cl)O1 (centres unmarked) [Example 3, (5-(2-chlorophenyl)-2,2-dimethyl-1,3-dioxolan-4-yl)methyl sulfamate]",99.2,,,"ED50 ([2]; determined at 1 h (time of maximum effect)): 116 mg/kg; ED50 ([3]; ED50 vs vehicle only (100%), determined at 0.25 h (time of maximum effect)): 205 mg/kg"
"CC1(C)OC(COS(N)(=O)=O)C(c2ccccc2Cl)O1 (centres unmarked) [Example 4, (5-(2-chlorophenyl)-2,2-dimethyl-1,3-dioxolan-4-yl)methyl sulfamate]",,,200 (56.5%),"Fixed rotarod, percentage of residence time compared to the vehicle only (100%) ([1]; dose 100 (unit not given)): 100 (76.6%); Wire suspension, percentage compared to the vehicle only (100%) [2]: 100 (41.3%)"
"CC1O[C@@H](COS(N)(=O)=O)[C@H](c2ccccc2Cl)O1 (stereo partly drawn) [Example 6, ((4S,5S)-5-(2-chlorophenyl)-2-methyl-1,3-dioxolan-4-yl)methyl sulfamate]",,,200 (44.8%),"Fixed rotarod, percentage of residence time compared to the vehicle only (100%) ([1]; dose 100 (unit not given)): 100 (50.4%); Wire suspension, percentage compared to the vehicle only (100%) [2]: 100 (70.0%)"
"CC1(C)O[C@H](c2ccccc2F)[C@@H](COS(N)(=O)=O)O1 [Example 15, ((4R,5R)-5-(2-fluorophenyl)-2,2-dimethyl-1,3-dioxolan-4-yl)methyl sulfamate]",,,,"Fixed rotarod, percentage of residence time compared to the vehicle only (100%) ([1]; dose 140 (unit not given)): 140(22.7%)"
"CC1(C)O[C@@H](COS(N)(=O)=O)[C@H](c2ccccc2F)O1 [Example 16, ((4S,5S)-5-(2-fluorophenyl)-2,2-dimethyl-1,3-dioxolan-4-yl)methyl sulfamate]",,161,,"ED50 [2, 4]: 99.1 mg/kg"
"CC1(C)O[C@@H](COS(N)(=O)=O)[C@H](c2ccccc2I)O1 [Example 28, ((4S,5S)-5-(2-iodophenyl)-2,2-dimethyl-1,3-dioxolan-4-yl)methyl sulfamate]",102,261,,"Wire suspension, percentage compared to the vehicle only (100%) [2]: 100(66.8%)"
"NS(=O)(=O)OC[C@H]1OC2(CCCCC2)O[C@@H]1Cc1ccccc1Cl [Example 152, ((2R,3R)-3-(2-chlorobenzyl)-1,4-dioxaspiro[4,5]decan-2-yl)methyl sulfamate]",,,200 (77.2%),
"CC1(C)O[C@@H](CCOS(N)(=O)=O)[C@H](c2ccccc2Cl)O1 [Example 154, ((4S,5S)-5-(2-chlorophenyl)-2,2-dimethyl-1,3-dioxolan-4-yl)ethyl sulfamate]",,,200 (70.4%),
"CCC1(CC)O[C@@H](CCOS(N)(=O)=O)[C@H](c2ccccc2Cl)O1 [Example 156, 2-((4S,5S)-5-(2-chlorophenyl)-2,2-diethyl-1,3-dioxolan-4-yl)ethyl sulfamate]",,,200 (73.2%),
"NS(=O)(=O)OCC[C@@H]1OC2(CCCC2)O[C@H]1c1ccccc1Cl [Example 158, 2-((2S,3S)-3-(2-chlorophenyl)-1,4-dioxaspiro[4,4]nonan-2-yl)ethyl sulfamate]",,,200 (74.2%),
"NS(=O)(=O)OCC[C@@H]1OC2(CCCCC2)O[C@H]1c1ccccc1Cl [Example 160, 2-((2S,3S)-3-(2-chlorophenyl)-1,4-dioxaspiro[4,5]decan-2-yl)ethyl sulfamate]",,,200 (86.8%),
